Measured values published in patent US8846710B2, “Method of preferentially inducing the biosynthesis of interferon” (3M Innovative Properties Company, priority 2005, dated 2014).

Legend:
interferon (α) (IFN-α) = assay: Cytokine induction in human cells: IFN-α secreted by PBMC into culture media (ELISA); format: cell-based; conditions: for Maximal Response (pg/mL) IFN: Table 7, maximal response in dose response curve, background-subtracted, reference-adjusted, median; for Maximal Response IFN / Minimum Effective Concentration IFN: Table 11, human PBMC, median where tested in more than one experiment
Procedure, shortened: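 Human donor PBMC, 2×10^6 cells/mL final in RPMI complete, treated 18–24 h at 37 °C, 5% CO2 with 3-fold dilutions (usually 30-0.014 μM), DMSO ≤1%. Supernatant IFN-α by multi-subtype sandwich ELISA, background-subtracted and reference-adjusted; minimum effective concentration = lowest concentration exceeding usually 20 pg/mL.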

[1] = system: tumor necrosis factor (α) (TNF-α); assay: Cytokine induction in human cells: TNF-α secreted by PBMC into culture media (ORIGEN M-Series immunoassay); format: cell-based; set-up: key to Maximal Response (pg/mL) TNF / Maximal Response TNF: If any negative values result from background subtraction, the reading is reported as “*”, and is noted as not reliably detectable; conditions: for Maximal Response TNF / Minimum Effective Concentration TNF: Table 11, human PBMC; for Maximal Response TNF: * = TNF below experimental background of 40 pg/mL; for Minimum Effective Concentration TNF: median where tested in more than one experiment
Procedure, shortened: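 Human donor PBMC (final 2×10^6 cells/mL) were incubated 18 to 24 hours at 37° C with compound, usually 30-0.014 μM in 3-fold steps, ≤1% DMSO. Supernatant TNF-α was measured by ORIGEN immunoassay, background-subtracted and reference-adjusted; minimum effective concentration was the lowest concentration exceeding a fixed cytokine threshold.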

Compound	Maximal Response (pg/mL) IFN (interferon (α) (IFN-α))	Maximal Response IFN (interferon (α) (IFN-α))	Maximal Response TNF ([1]; median)	Maximal Response (pg/mL) TNF ([1]; Table 7, maximal response in dose response curve, background-subtracted, reference-adjusted, median)	Minimum Effective Concentration IFN (interferon (α) (IFN-α))	Minimum Effective Concentration TNF [1]
CC(C)(Cn1c(CCO)nc2c(N)nc3ccccc3c21)NS(C)(=O)=O [Example 6, N-{2-[4-Amino-2-(2-hydroxyethyl)-1H-imidazo[4,5-c]quinolin-1-yl]-1,1-dimethylethyl}methanesulfonamide]	7521 pg/mL	6527 pg/mL	*	–	–	–
CC(C)(Cn1c(CO)nc2c(N)nc3ccccc3c21)NS(C)(=O)=O [Example 7, N-[2-(4-Amino-2-hydroxymethyl-1H-imidazo[4,5-c]quinolin-1-yl)-1,1-dimethylethyl]methanesulfonamide]	2250 pg/mL	1670 pg/mL	154 pg/mL	121 pg/mL	–	–
Cc1ccc(C)c(S(=O)(=O)NCCCCn2c(CCO)nc3c(N)nc4ccccc4c32)c1 [Example 36]	–	3316 pg/mL	*	–	10 µM	>30 µM
CC(C)NC(=O)NCCCn1c(CCO)nc2c(N)nc3ccccc3c21 [Example 99]	–	21829 pg/mL	*	–	0.37 µM	>30 µM
Nc1nc2ccccc2c2c1nc(CCO)n2CCCCNC(=O)c1nccc2ccccc12 [Example 111]	–	7753 pg/mL	983 pg/mL	–	0.12 µM	1.11 µM
Nc1nc2ccccc2c2c1nc(CCO)n2CCCCNS(=O)(=O)c1ccc(F)cc1 [Example 112]	–	8361 pg/mL	76 pg/mL	–	1.11 µM	30 µM
NCCCCn1c(CCO)nc2c(N)nc3ccccc3c21 [Example 114]	–	23 pg/mL	*	–	30 µM	>30 µM
Nc1nc2ccccc2c2c1nc(CCO)n2CCCCNC(=O)N1CCOCC1 [Example 115]	–	8361 pg/mL	*	–	1.11 µM	>30 µM
Nc1nc2ccccc2c2c1nc(CCO)n2CCCCNC(=O)c1cnc2ccccc2c1 [Example 116]	–	8361 pg/mL	1112 pg/mL	–	0.37 µM	30 µM
Nc1nc2ccccc2c2c1nc(CCO)n2CCCCNC(=O)c1cnc2ccccc2n1 [Example 117]	–	5520 pg/mL	1938 pg/mL	–	0.37 µM	3.33 µM
Nc1nc2ccccc2c2c1nc(CCO)n2CCCCCCCCNC(=O)Nc1ccccc1 [Example 118]	–	5177 pg/mL	*	–	0.37 µM	>30 µM
CS(=O)(=O)NCCCCCCCCn1c(CCO)nc2c(N)nc3ccccc3c21 [Example 119]	–	8361 pg/mL	693 pg/mL	–	0.04 µM	3.33 µM
NCCCn1c(CCO)nc2c(N)nc3ccccc3c21 [Example 120]	–	5636 pg/mL	*	–	3.33 µM	>30 µM
Nc1nc2ccccc2c2c1nc(CCO)n2CCCCCCCCNC(=O)c1ccccc1 [Example 121]	–	2441 pg/mL	180 pg/mL	–	0.37 µM	3.33 µM
CS(=O)(=O)NCCCn1c(CCO)nc2c(N)nc3ccccc3c21 [Example 122]	–	9651 pg/mL	*	–	3.33 µM	>30 µM
CC(C)(CNC(=O)c1ccccc1)Cn1c(CCO)nc2c(N)nc3ccccc3c21 [Example 124]	–	3980 pg/mL	1446 pg/mL	–	0.12 µM	3.33 µM
CS(=O)(=O)CCCCCn1c(CCO)nc2c(N)nc3ccccc3c21 [Example 125]	–	8361 pg/mL	*	–	0.37 µM	>30 µM
CCCCNC(=O)NCCCn1c(CCO)nc2c(N)nc3ccccc3c21 [Example 126]	–	8361 pg/mL	*	–	1.11 µM	>30 µM
Nc1nc2ccccc2c2c1nc(CCO)n2CCCNC(=O)N1CCOCC1 [Example 128]	–	75 pg/mL	*	–	30 µM	>30 µM
CC(C)(CN)Cn1c(CCO)nc2c(N)nc3ccccc3c21 [Example 129]	–	2702 pg/mL	85 pg/mL	–	0.37 µM	30 µM
CC(C)(CNC(=O)Nc1ccccc1)Cn1c(CCO)nc2c(N)nc3ccccc3c21 [Example 130]	–	8361 pg/mL	2001 pg/mL	–	0.014 µM	3.33 µM
CC(C)(CNS(C)(=O)=O)Cn1c(CCO)nc2c(N)nc3ccccc3c21 [Example 131]	–	8361 pg/mL	*	–	0.37 µM	>30 µM
Nc1nc2ccccc2c2c1nc(CCO)n2CCCNC(=O)c1ccccc1 [Example 132]	–	8361 pg/mL	*	–	0.37 µM	>30 µM
CN(CCOCCn1c(CCO)nc2c(N)nc3ccccc3c21)S(C)(=O)=O [Example 133]	–	8361 pg/mL	*	–	0.37 µM	>30 µM
CN(CCOCCn1c(CCO)nc2c(N)nc3ccccc3c21)C(=O)c1ccccc1 [Example 134]	–	8361 pg/mL	315 pg/mL	–	3.33 µM	30 µM
CN(CCOCCn1c(CCO)nc2c(N)nc3ccccc3c21)C(=O)C1CCCCC1 [Example 135]	–	2464 pg/mL	146 pg/mL	–	3.33 µM	30 µM
CCNC(=O)NCCn1c(CCO)nc2c(N)nc3ccccc3c21 [Example 137]	–	801 pg/mL	73 pg/mL	–	30 µM	30 µM
CC(C)CC(=O)NCCn1c(CCO)nc2c(N)nc3ccccc3c21 [Example 138]	–	36 pg/mL	*	–	3.33 µM	>30 µM
CCCCCCCCCCCCCCCC(=O)NCCOCCn1c(CCO)nc2c(N)nc3ccccc3c21 [Example 140]	–	673 pg/mL	*	–	1.11 µM	>30 µM
CC(C)C(=O)NCCCn1c(CCO)nc2c(N)nc3ccccc3c21 [Example 141, N-{3-[4-Amino-2-(2-hydroxyethyl)-1H-imidazo[4,5-c]quinolin-1-yl]propyl}-2-methylpropionamide]	–	14046 pg/mL	243 pg/mL	–	–	–
